Values after ≈ are worked out from the molar mass of the structure shown.
What was measured:
[1] = tested on: K. pneumoniae; assay: MIC by broth microdilution (CLSI), K. pneumoniae; format: cell-based; settings: broth microdilution, cation adjusted Mueller-Hinton Broth, 35° C., 18-24 h; for MIC: Klebsiella pneumoniae, read-out: K. pneumoniae MIC
Method: (§1) Minimal inhibitory concentrations (MIC) were determined by the broth microdilution method in accordance with the Clinical and Laboratory Standards Institute (CLSI) guidelines. In brief, organism suspensions were adjusted to a 0.5 McFarland standard to yield a final inoculum between 3×10^5 and 7×10^5 colony-forming units (CFU)/mL. Drug dilutions and inocula were made in sterile, cation adjusted Mueller-Hinton Broth (Beckton Dickinson). An inoculum volume of 100 μL was added to wells containing 100 μL of broth with 2-fold serial dilutions of drug. All inoculated microdilution trays were incubated in ambient air at 35° C. for 18-24 h. Following incubation, the lowest concentration of the drug that prevented visible growth (OD600 nm<0.05) was recorded as the MIC. Performance of the assay was monitored by the use of laboratory quality-control strains and levofloxacin, a compound with a defined MIC spectrum, in accordance with CLSI guidelines.

[2] = tested on: E. coli; assay: MIC by broth microdilution (CLSI), E. coli; format: cell-based; settings: broth microdilution, cation adjusted Mueller-Hinton Broth, 35° C., 18-24 h; for MIC: Escherichia coli, read-out: E. coli MIC
Method: as §1

MIC [2]	Compound	further results
> 32 µg/mL	CC(=O)NCC(Cc1ccc(C#Cc2ccc(CN3CCOCC3)cc2)cc1)c1cc[nH]c(=O)c1O (centres unmarked) [Compound 1, N-(2-(3-hydroxy-2-oxo-1,2-dihydropyridin-4-yl)-3-(4-((4-(morpholinomethyl)phenyl)ethynyl)phenyl)propyl) acetamide]	–
8 to 32 µg/mL (≈ 18.6 to 74.5 µM)	Cn1ccc(=O)c(O)c1CNc1ccc(C#Cc2ccc(CN3CCOCC3)cc2)cc1 [Compound 2, 3-hydroxy-1-methyl-2-(((4-((4-(morpholinomethyl)phenyl)ethynyl)phenyl)amino)methyl) pyridin-4(1H)-one]	–
> 32 µg/mL	NC(=O)C(Cc1ccc(C#Cc2ccc(CN3CCOCC3)cc2)cc1)n1cccc(O)c1=O (centres unmarked) [Compound 6, 2-(3-hydroxy-2-oxopyridin-1(2H)-yl)-3-(4-((4-(morpholinomethyl)phenyl)ethynyl)phenyl)propanamide]	–
8 to 32 µg/mL (≈ 16.4 to 65.8 µM)	CC(=O)NCC(Cc1ccc(C#Cc2ccc(CN3CCOCC3)cc2)cc1)c1nncc(O)c1O (centres unmarked) [Compound 11, N-(2-(4,5-dihydroxypyridazin-3-yl)-3-(4-((4-(morpholinomethyl)phenyl)ethynyl)phenyl)propyl) acetamide]	MIC [1]: 8 to 32 µg/mL (≈ 16.4 to 65.8 µM)
< 1 µg/mL	O=c1[nH]cnc(CCc2ccc(C#Cc3ccc(CN4CCOCC4)cn3)cc2)c1O [Compound 16, 5-hydroxy-6-(4-((5-(morpholinomethyl)pyridin-2-yl)ethynyl)phenethyl) pyrimidin-4(3H)-one]	MIC [1]: 1 to 8 µg/mL (≈ 2.4 to 19.2 µM)
< 1 µg/mL	O=c1[nH]cnc(CCc2ccc(C#Cc3ccc(CN4CCOCC4)nc3)cc2)c1O [Compound 17, 5-hydroxy-6-(4-((6-(morpholinomethyl)pyridin-3-yl)ethynyl)phenethyl) pyrimidin-4(3H)-one]	MIC [1]: 1 to 8 µg/mL (≈ 2.4 to 19.2 µM)
< 1 µg/mL	O=c1[nH]cnc(CCc2ccc(C#Cc3ccc(CN4CCOCC4)cc3)cn2)c1O [Compound 19, 5-hydroxy-6-(2-(5-((4-(morpholinomethyl)phenyl)ethynyl)pyridin-2-yl)ethyl)pyrimidin-4(3H)-one]	MIC [1]: 1 to 8 µg/mL (≈ 2.4 to 19.2 µM)
1 to 8 µg/mL (≈ 2.4 to 19.2 µM)	O=c1[nH]cnc(CCc2ncc(C#Cc3ccc(CN4CCOCC4)cc3)cn2)c1O [Compound 21, 5-hydroxy-6-(2-(5-((4-(morpholinomethyl)phenyl)ethynyl)pyrimidin-2-yl)ethyl)pyrimidin-4(3H)-one]	–
< 1 µg/mL	O=c1[nH]cnc(CCn2ccc(C#Cc3ccc(CN4CCOCC4)cc3)cc2=O)c1O [Compound 23, 5-hydroxy-6-(2-(4-((4-(morpholinomethyl)phenyl)ethynyl)-2-oxopyridin-1(2H)-yl)ethyl)pyrimidin-4(3H)-one]	MIC [1]: 8 to 32 µg/mL (≈ 18.5 to 74 µM)
> 32 µg/mL	N#CC(Cc1ccc(C#Cc2ccc(CN3CCOCC3)cc2)cc1)c1cc[nH]c(=O)c1O (centres unmarked) [Compound 121, 2-(3-hydroxy-2-oxo-1,2-dihydropyridin-4-yl)-3-(4-((4-(morpholinomethyl)phenyl)ethynyl)phenyl)propanenitrile]	–
> 32 µg/mL	O=C(O)c1ccc(C#Cc2ccc(NCc3occc(=O)c3O)cc2)cc1 [Compound 123, 4-((4-(((3-hydroxy-4-oxo-4H-pyran-2-yl)methyl)amino)phenyl)ethynyl)benzoic acid]	–
> 32 µg/mL	O=c1[nH]cnc(CN(CCO)c2ccc(C#Cc3ccc(CN4CCOCC4)cc3)cc2)c1O [Compound 127, 5-hydroxy-6-(((2-hydroxyethyl)(4-((4-(morpholinomethyl)phenyl)ethynyl)phenyl)amino)methyl) pyrimidin-4(3H)-one]	–
> 32 µg/mL	O=c1[nH]cnc(CNc2ccc(C#Cc3ccc(-c4ncco4)cc3)cc2)c1O [Compound 128, 5-hydroxy-6-(((4-((4-(oxazol-2-yl)phenyl)ethynyl)phenyl)amino)methyl)pyrimidin-4(3H)-one]	–

Second part, the molecule before the results:

Compound	MIC [2]	further results
OCC(Cc1nncc(O)c1O)c1ccc(C#Cc2ccc(CN[C@H]3CCOC3)cc2)cc1 (single isomer, unassigned) [Compound 101]	–	K. pneumoniae MIC [1]: B (B: >1 μg/mL to ≤8.0 μg/mL); E. coli MIC [2]: B (B: >1 μg/mL to ≤8.0 μg/mL)
OCC(Cc1nncc(O)c1O)c1ccc(C#Cc2ccc(CN[C@H]3CCOC3)cc2)cc1 (single isomer, unassigned) [Compound 102]	–	K. pneumoniae MIC [1]: C (C: >8.0 μg/mL to ≤32 μg/mL); E. coli MIC [2]: C (C: >8.0 μg/mL to ≤32 μg/mL)
CC(=O)NCC(Cc1ccc(C#Cc2ccc(CN3CCOCC3)cc2)cc1)n1cncc(O)c1=O (centres unmarked) [Compound 3, N-(2-(5-hydroxy-6-oxopyrimidin-1(6H)-yl)-3-(4-((4-(morpholinomethyl)phenyl)ethynyl)phenyl)propyl) acetamide]	> 32 µg/mL	–
CNC(=O)C(Cc1ccc(C#Cc2ccc(CN3CCOCC3)cc2)cc1)n1cncc(O)c1=O (centres unmarked) [Compound 4, 2-(5-hydroxy-6-oxopyrimidin-1(6H)-yl)-N-methyl-3-(4-((4-(morpholinomethyl)phenyl)ethynyl)phenyl)propanamide]	> 32 µg/mL	–
NC(=O)C(Cc1ccc(C#Cc2ccc(CN3CCOCC3)cc2)cc1)n1cncc(O)c1=O (centres unmarked) [Compound 5, 2-(5-hydroxy-6-oxopyrimidin-1(6H)-yl)-3-(4-((4-(morpholinomethyl)phenyl)ethynyl)phenyl)propanamide]	> 32 µg/mL	–
CS(=O)(=O)NCC(Cc1ccc(C#Cc2ccc(CN3CCOCC3)cc2)cc1)n1cncc(O)c1=O (centres unmarked) [Compound 7, N-(2-(5-hydroxy-6-oxopyrimidin-1(6H)-yl)-3-(4-((4-(morpholinomethyl)phenyl)ethynyl)phenyl)propyl) methanesulfonamide]	> 32 µg/mL	–
CNC(=O)C(Cc1ccc(C#Cc2ccc(CN3CCOCC3)cc2)cc1)c1nccc(O)c1O (centres unmarked) [Compound 12, 2-(3,4-dihydroxypyridin-2-yl)-N-methyl-3-(4-((4-(morpholinomethyl)phenyl)ethynyl)phenyl)propanamide]	8 to 32 µg/mL (≈ 17 to 67.9 µM)	–
O=c1[nH]cnc(CCc2ccc(C#Cc3ncccn3)cc2)c1O [Compound 14, 5-hydroxy-6-(4-(pyrimidin-2-ylethynyl)phenethyl) pyrimidin-4(3H)-one]	8 to 32 µg/mL (≈ 25.1 to 101 µM)	MIC [1]: > 32 µg/mL
O=c1[nH]cnc(CCc2ccc(C#Cc3ccc(CNC4CC(O)C4)cc3)cn2)c1O (centres unmarked) [Compound 15, 5-hydroxy-6-(2-(5-((4-(((3-hydroxycyclobutyl)amino)methyl)phenyl)ethynyl)pyridin-2-yl)ethyl)pyrimidin-4(3H)-one]	8 to 32 µg/mL (≈ 19.2 to 76.8 µM)	MIC [1]: > 32 µg/mL
O=c1[nH]cnc(CCc2ccc(C#Cc3ccncc3)cc2)c1O [Compound 18, 5-hydroxy-6-(4-(pyridin-4-ylethynyl)phenethyl) pyrimidin-4(3H)-one]	< 1 µg/mL	MIC [1]: > 32 µg/mL
O=c1[nH]cnc(CCc2ccc(C#Cc3ccc(CNC4CCOC4)cc3)cn2)c1O (centres unmarked) [Compound 20, 5-hydroxy-6-(2-(5-((4-(((tetrahydrofuran-3-yl)amino)methyl)phenyl)ethynyl)pyridin-2-yl)ethyl)pyrimidin-4(3H)-one]	< 1 µg/mL	MIC [1]: 8 to 32 µg/mL (≈ 19.2 to 76.8 µM)
O=c1[nH]cnc(Cn2ccc(C#Cc3ccc(CN4CCOCC4)cc3)cc2=O)c1O [Compound 44, 5-hydroxy-6-((4-((4-(morpholinomethyl)phenyl)ethynyl)-2-oxopyridin-1(2H)-yl)methyl)pyrimidin-4(3H)-one]	8 to 32 µg/mL (≈ 19.1 to 76.5 µM)	–
O=C1N(Cc2nc[nH]c(=O)c2O)Cc2cc(C#Cc3ccc(CN4CCOCC4)cc3)cn21 [Compound 81, 2-((5-hydroxy-6-oxo-1,6-dihydropyrimidin-4-yl)methyl)-6-((4-(morpholinomethyl)phenyl)ethynyl)-1,2-dihydro-3H-pyrrolo[1,2-c]imidazol-3-one]	8 to 32 µg/mL (≈ 18 to 71.8 µM)	–
O=c1[nH]cnc(CS(=O)(=O)c2ccc(C#Cc3ccc(CN4CCOCC4)cc3)cc2)c1O [Compound 118, 5-hydroxy-6-(((4-((4-(morpholinomethyl)phenyl)ethynyl)phenyl)sulfonyl)methyl) pyrimidin-4(3H)-one]	8 to 32 µg/mL (≈ 17.2 to 68.7 µM)	–
O=c1[nH]cnc(C(Cc2ccc(C#Cc3ccc(CN4CCOCC4)cc3)cc2)Cn2cnnn2)c1O (centres unmarked) [Compound 119, 5-hydroxy-6-(1-(4-((4-(morpholinomethyl)phenyl)ethynyl)phenyl)-3-(1H-tetrazol-1-yl)propan-2-yl)pyrimidin-4(3H)-one]	> 32 µg/mL	–
CS(=O)(=O)C(Cc1ccc(C#Cc2ccc(CN3CCOCC3)cc2)cc1)c1occc(=O)c1O (centres unmarked) [Compound 120, 3-hydroxy-2-(l1-(methylsulfonyl)-2-(4-((4-(morpholinomethyl)phenyl)ethynyl)phenyl)ethyl)-4H-pyran-4-one]	> 32 µg/mL	–
O=c1ccoc(CS(=O)(=O)c2ccc(C#Cc3ccc(CN4CCOCC4)cc3)cc2)c1O [Compound 124, 3-hydroxy-2-(((4-((4-(morpholinomethyl)phenyl)ethynyl)phenyl)sulfonyl)methyl)-4H-pyran-4-one]	> 32 µg/mL	–
C=CCC(Nc1ccc(C#Cc2ccc(CN3CCOCC3)cc2)cc1)c1occc(=O)c1O (centres unmarked) [Compound 126, 3-hydroxy-2-(1-((4-((4-(morpholinomethyl)phenyl)ethynyl)phenyl)amino)but-3-en-1-yl)-4H-pyran-4-one]	> 32 µg/mL	–
O=c1[nH]cnc(CNc2ccc(C#Cc3ccc(-c4nnn[nH]4)cc3)cc2)c1O [Compound 129, 6-(((4-((4-(1H-tetrazol-5-yl)phenyl)ethynyl)phenyl)amino)methyl)-5-hydroxypyrimidin-4(3H)-one]	> 32 µg/mL	–
O=C(Nc1ccc(C#CC#Cc2ccccc2)cc1)c1occc(=O)c1O [Compound 130, 3-hydroxy-4-oxo-N-(4-(phenylbuta-1,3-diyn-1-yl)phenyl)-4H-pyran-2-carboxamide]	> 32 µg/mL	–

— patent publication US20220081421A1, “ANTIBACTERIAL COMPOUNDS” (Forge Therapeutics, Inc., priority 2018, published 2022)
